Values joined by “and” are separate entries in the source; they are usually repeats but may differ in a detail not shown here. Identical values can stand only once.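 Following 48 hours of exposure in 96-well plates, responses at five concentrations were used to interpolate endpoints linearly. The concentration for 50% growth inhibition is given as GI50. TGI marks complete inhibition of growth.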
Legend:
Assay in all cases: NCI tumour cell line growth inhibition, 48 h
[1] = tested on: SR leukemia
[2] = tested on: K-562 leukemia
[3] = tested on: HT29 colon
[4] = tested on: MOLT-4 leukemia
[5] = tested on: HS 578T breast
[6] = tested on: LOX IMVI melanoma
[7] = tested on: SF-295 CNS
[8] = tested on: EKVX NSCLC
[9] = tested on: SF-268 CNS
[10] = tested on: NCI-H226 lung

SMILES	GI50 [1]	TGI [1]	GI50 [2]	TGI [2]	GI50 [3]	TGI [3]	GI50 [4]	TGI [4]	GI50 [5]	TGI [5]	GI50 [6]	TGI [6]	GI50 [7]	TGI [7]	GI50 [8]	TGI [8]	GI50 [9]	TGI [9]	GI50 [10]	TGI [10]
O=C(CCN1CCCC1)Nc1ccc2c(Nc3ccccc3)c3ccccc3nc2c1	50.3 nM	1450 nM	235 nM	1200 nM	521 nM	3140 nM	43.2 nM	1560 nM	1090 nM	3280 nM	398 nM	1930 nM	498 nM	1910 nM	1410 nM	4230 nM	677 nM	2300 nM	1180 nM	3530 nM
O=C(O)C1C(C(=O)O)C2(Cl)C(Cl)=C(Cl)C1(Cl)C2(Cl)Cl.[Cd] (stereo not drawn)	2800 nM	32700 nM	16300 nM	51800 nM	18400 nM	35900 nM	22000 nM	60900 nM	23500 nM	> 87000 nM	16800 nM	33500 nM	> 100000 nM	> 100000 nM	19900 nM	35600 nM	18100 nM	36800 nM	34900 nM	> 66700 nM
CC[C@H](C)[C@H](NC(=O)[C@H]1CCCCN1C)C(=O)N(C)[C@H](C[C@@H](OC(C)=O)c1nc(C(=O)N[C@@H](Cc2ccccc2)C[C@H](C)C(=O)OC)cs1)C(C)C	–	9590 nM	0.278 nM and 2.5 nM	> 25000 nM	0.251 nM and < 2.5 nM	13.7 nM and < 2.5 nM	3.31 nM and 2.5 nM	> 25000 nM	0.504 nM and 2.5 nM	6900 nM	0.536 nM and 2.5 nM	> 25000 nM	–	0.762 nM and 4.68 nM	0.751 nM and 2.5 nM	> 25000 nM	0.466 nM and 2.5 nM	> 25000 nM	2.34 nM and < 2.5 nM	< 2.5 nM
Nc1ncnc2c1c(-c1ccc(Oc3ccccc3)cc1)nn2C[C@@H]1SSC[C@@H]1O	38.5 nM	270 nM	295 nM	3210 nM	334 nM	1700 nM	30.4 nM	119 nM	2020 nM	11600 nM	169 nM	1110 nM	1470 nM	5490 nM	373 nM	5840 nM	37.5 nM	530 nM	1590 nM	3920 nM
CC(C)(C)[Si](C)(C)OCC1OC(n2cnc3c(N)ncnc32)C(O)C1O (stereo not drawn)	–	> 100000 nM	–	> 100000 nM	–	> 100000 nM	–	> 100000 nM	–	> 100000 nM	–	> 100000 nM	–	> 100000 nM	–	> 100000 nM	–	> 100000 nM	–	> 100000 nM
CN(C)C(=O)SC1=C(c2c(Cl)cccc2Cl)C(=O)c2ccccc21	3560 nM	88900 nM	2980 nM	14800 nM	3470 nM	11900 nM	2500 nM	7060 nM	20000 nM	> 75500 nM	1740 nM	3750 nM	16600 nM	33700 nM	17400 nM	40300 nM	8900 nM	22700 nM	19900 nM	59800 nM

— PubChem BioAssay (NCI)
